{"source": "patent US3943137A", "about": "“Acronycine derivatives” (University of Kansas Endowment Association, priority 1973, dated 1976)", "key": {"[1]": {"test": "Hydrolysis of acylacronycinium salts in presence of complexing agents", "format": "physicochemical", "conditions": "for half-life at 100 µM: 10^-4 M drug, 25° C., pH 6.0, read-out: Apparent half-life, t1/2; for k (hydrolysis): gentisic acid (0.05 M)", "protocol": "In studying the kinetics of hydrolysis of the aforesaid quaternary acyl acronycinium salts to yield acronycine, it was determined that the increased solubility and the rapid rate of hydrolysis were such that said quaternary derivatives were eminently well suited for use as pro-drugs. Nevertheless, the facility with which hydrolysis occurred in water presented one problem of too rapid precipitation from solution as a consequence of the formation of the slightly soluble acronycine free base. In order to prevent any objectionable hydrolysis of the pro-drug in aqueous solution prior to administration, it was discovered that the hydrolytic rate thereof could be retarded by the formation of intermolecular complexes therewith. […] Moreover, since complexation is an equilibrium phenomenon, extensive complexation occurs in the relatively concentrated drug solution. However, upon dilution with aqueous media such as body fluids, the complex species dissociates, and the pro-drug is then rapidly hydrolyzed to the desired drug species, namely, the acronycine free base. Exemplary of the complexing agents which can be used in aqueous solutions of the acylacronycinium salts to retard the hydrolysis thereof are a wide variety of the organic acids and alkali metal salts thereof, preferably the cyclic and aromatic organic acids, and most preferably the hydroxy aromatic acids. Representative of same are gentisic acid, gamma-resorcylic acid, p-hydroxycinnamic acid, 2-furoic acid, m-hydroxycinnamic acid, 3,4-dimethylcinnamic acid and 3-methylgentisic acid, and the sodium and other salts thereof. A suitably stable and useful formulation of an acylacronycinium salt for use in the preparation of pharmaceutical solutions can be simply made by preparing a powder mixture of the desired acylacronycinium salt and a suitable complexing agent in such proportions and amounts that upon addition of an aqueous solvent, the resulting solution would be of a composition such that the hydrolysis of the acylacronycinium salt would be greatly retarded.\nAmong the number of the hydroxy aromatic acids, particularly the hydroxy benzoic acids that have been utilized according to the invention, excellent results have been attained with the preferred 2,5-dihydroxy-benzoic acid (gentisic acid). […] Mathematical analysis of the results dictates describing this system by two equilibria; one to one complex and one to two complex formation (one drug and two ligand), with the 1:1 complex and the free drug hydrolyzing with half-lives of 120 and 23 minutes, respectively. The solid curve of the FIGURE of drawing illustrates the result of such model. Constants required for the t1/2 calculations were as follows:\nand the experimental conditions were:\nUse of suitable complexing agents in aqueous solutions of the acylacronycinium salts retarded the hydrolysis of such compounds. Some of the complexing agents used were the following: sodium gentisate, sodium gamma-resorcylate and sodium cinnamate. Table I reflects the effects of sodium gentisate concentration on the apparent rate of hydrolysis of acetylacronycinium perchlorate.\nApparent half-line of acetylacronycinium perchlorate\n(10^-^4 M) as a function of sodium gentisate concentration\nin water at 25° C. pH = 6.0.\nExperimental: Twenty-five mg of acetylacronycinium perchlorate and 4.6 g of sodium gentisate were powdered, mixed and placed in a suitable vial and sealed. Just prior to use, 100 ml of water was added to the vial, and the solid material dissolved rapidly, yielding a solution which was about 10^^-3 M with respect to acetylacronycinium perchlorate and about 0.2 Molar with respect to sodium gentisate."}, "[2]": {"test": "Solubility", "format": "physicochemical", "conditions": "water; for solubility (qualitative): acetone, benzene"}, "[3]": {"test": "Hydrolysis of acylacronycinium salts in aqueous solution (no complexing agent)", "format": "physicochemical", "conditions": "for half-life: read-out: t1/2 (hydrolysis)"}, "[4]": {"system": "X-5563 myeloma", "conditions": "oral and subcutaneous routes; cited from earlier work"}, "[5]": {"conditions": "acronycine free base; cited from earlier work"}, "[6]": {"conditions": "intravenous; several instances; autopsy; cited from earlier work"}, "[7]": {"system": "adenocarcinoma 755", "conditions": "oral and subcutaneous routes; cited from earlier work"}, "[8]": {"conditions": "subcutaneous; cited from earlier work"}, "[9]": {"system": "mouse neoplasms", "conditions": "cited from earlier work"}, "[10]": {"system": "C-1498 leukemia", "conditions": "oral and subcutaneous routes; cited from earlier work"}, "[11]": {"conditions": "phosphate buffer, pH 7.60, 25°C"}}, "note": "Values joined by “and” are separate entries in the source; they are usually repeats but may differ in a detail not shown here. Equal values may be shown once. Where a name gives a salt, the structure may show the parent alone. Read-outs that look alike come from different tables or passages of the source.", "data": [{"smiles": "COc1cc2c(c3c1c(OC(C)=O)c1ccccc1[n+]3C)C=CC(C)(C)O2", "note": "[acetylacronycinium perchlorate, Acetylacronycinium Perchlorate]", "values": [{"measurement": "t1/2 and k of hydrolysis, 3,4-dihydroxycinnamic acid complex", "setting": "[1]; 3,4-dihydroxycinnamic acid, pH 6.5, 25° C., 0.05 M phosphate buffer", "result": "roughly comparable to those generated with the sodium gentisate complex"}, {"measurement": "t1/2 and k of hydrolysis, cinnamic acid complex", "setting": "[1]; cinnamic acid, pH 6.5, 25° C., 0.05 M phosphate buffer", "result": "roughly comparable to those generated with the sodium gentisate complex"}, {"measurement": "t1/2 and k of hydrolysis, gamma-resorcylic acid complex", "setting": "[1]; gamma-resorcylic acid, pH 6.5, 25° C., 0.05 M phosphate buffer", "result": "roughly comparable to those generated with the sodium gentisate complex"}, {"measurement": "t1/2 1:2 Complex", "setting": "[1]; model constant, sodium gentisate, μ = 1.0 M, 25.0°C, pH 6.5, 520 nm", "result": ".infin."}, {"measurement": "t1/2 and k of hydrolysis, p-hydroxycinnamic acid complex", "setting": "[1]; p-hydroxycinnamic acid, pH 6.5, 25° C., 0.05 M phosphate buffer", "result": "roughly comparable to those generated with the sodium gentisate complex"}, {"measurement": "rate of hydrolysis with sodium gentisate", "setting": "[1]; sodium gentisate, FIGURE", "result": "greatly reduced"}, {"measurement": "K1:1 (complexation constant)", "setting": "[1]; sodium gentisate, one drug, one ligand, μ = 1.0 M, 25.0°C, pH 6.5, 520 nm, in M^-1 (unit assumed)", "result": "4,081"}, {"measurement": "k1:2 (complexation constant)", "setting": "[1]; sodium gentisate, one drug, two ligand, μ = 1.0 M, 25.0°C, pH 6.5, 520 nm", "result": "80,000"}, {"measurement": "half-life at 1000 µM", "setting": "[1]; water, about 10^-3 M drug, about 0.2 Molar sodium gentisate, water, reconstituted powder mixture, read-out: apparent hydrolytic half-life (converted)", "result": "~9.5", "unit": "h"}, {"measurement": "half-life at 100 µM", "setting": "[1]; water, pH 6, sodium gentisate 0 M/l, water", "result": 0.383, "unit": "h"}, {"measurement": "half-life at 100 µM", "setting": "[1]; water, pH 6, sodium gentisate 0.1 M/l, water", "result": 5.83, "unit": "h"}, {"measurement": "half-life at 100 µM", "setting": "[1]; water, pH 6, sodium gentisate 0.2 M/l, water", "result": 9.63, "unit": "h"}, {"measurement": "half-life at 100 µM", "setting": "[1]; water, pH 6, sodium gentisate 1 × 10^-2 M/l, water", "result": 2.08, "unit": "h"}, {"measurement": "half-life at 100 µM", "setting": "[1]; water, pH 6, sodium gentisate 2 × 10^-2 M/l, water", "result": 2.6, "unit": "h"}, {"measurement": "half-life at 100 µM", "setting": "[1]; water, pH 6, sodium gentisate 2.5 × 10^-3 M/l, water", "result": 1.55, "unit": "h"}, {"measurement": "half-life at 100 µM", "setting": "[1]; water, pH 6, sodium gentisate 4 × 10^-2 M/l, water", "result": 3.45, "unit": "h"}, {"measurement": "half-life at 100 µM", "setting": "[1]; water, pH 6, sodium gentisate 5 × 10^-3 M/l, water", "result": 1.8, "unit": "h"}, {"measurement": "half-life at 100 µM", "setting": "[1]; water, pH 6, sodium gentisate 6 × 10^-2 M/l, water", "result": 4.33, "unit": "h"}, {"measurement": "half-life at 100 µM", "setting": "[1]; water, pH 6, sodium gentisate 8 × 10^-2 M/l, water", "result": 4.92, "unit": "h"}, {"measurement": "half-life", "setting": "[1]; water, pH 6.5, 1:1 complex with sodium gentisate, two-equilibria model, μ = 1.0 M, 25.0°C, pH 6.5, 520 nm, read-out: half-life of hydrolysis, 1:1 complex", "result": 2, "unit": "h"}, {"measurement": "half-life", "setting": "[1]; water, pH 6.5, model constant, sodium gentisate, μ = 1.0 M, 25.0°C, pH 6.5, 520 nm, read-out: t1/2 1:1 Complex", "result": 1.98, "unit": "h"}, {"measurement": "solubility (qualitative)", "setting": "[2]", "result": "insoluble in benzene, but soluble in water and acetone"}, {"measurement": "increase in solubility over the free base", "setting": "[2]", "result": "hundredfold increase in solubility"}, {"measurement": "solubility", "setting": "[2]; read-out: Solubility", "result": "~250", "unit": "µg/mL"}, {"measurement": "solubility", "setting": "[2]; read-out: solubility in water", "result": 250, "unit": "µg/mL"}, {"measurement": "enthalpy of activation of hydrolysis", "setting": "[3]", "result": "about 20 kcal/mole"}, {"measurement": "effect of dielectric constant on hydrolysis rate", "setting": "[3]; increasing dielectric constant", "result": "greatly increased"}, {"measurement": "effect of ionic strength, pH, anion, ester group size on hydrolysis rate", "setting": "[3]; ionic strength, pH (below 8-9), anion, ester group size", "result": "remarkably insensitive"}]}, {"smiles": "COc1cc2c(c3c1c(=O)c1ccccc1n3C)C=CC(C)(C)O2", "note": "[acronycine]", "values": [{"measurement": "activity against X-5563 myeloma", "setting": "[4]", "result": "significant activity"}, {"measurement": "solubility", "setting": "[5]", "result": "2 to 3", "unit": "µg/mL"}, {"measurement": "blockage of the circulatory system", "setting": "[6]", "result": "blockage of the circulatory system was evidenced, autopsy revealing an actual aortic block by the compound itself"}, {"measurement": "solubility (qualitative)", "setting": "[2]; listed as base", "result": "soluble in acetone and benzene, insoluble in water"}, {"measurement": "solubility", "setting": "[2]; read-out: solubility in water", "result": "2 to 3", "unit": "µg/mL"}, {"measurement": "activity against adenocarcinoma 755", "setting": "[7]", "result": "significant activity"}, {"measurement": "skin irritation or alopecia", "setting": "[8]", "result": "no evidence of skin irritation or alopecia"}, {"measurement": "reduction in the size of tumors", "setting": "[9]; aqueous suspension, Svoboda et al", "result": "significant reductions in the size of a number of tumors"}, {"measurement": "activity in delayed therapy experiments", "setting": "[9]; delayed therapy", "result": "significant activity in delayed therapy experiments"}, {"measurement": "antitumor activity, intravenous", "setting": "[9]; intravenous, free base", "result": "only minimum activity"}, {"measurement": "effectiveness by routes of administration", "setting": "[9]; various routes", "result": "effective by various routes of administration"}, {"measurement": "tumors against which significant activity was demonstrated", "setting": "[9]; wide range of dose levels, Svoboda laboratory", "result": "12 of 17"}, {"measurement": "activity against C-1498 leukemia", "setting": "[10]", "result": "significant activity"}]}, {"smiles": "COc1cc2c(c3c1c(=O)c1ccccc1n3C)C=CC(C)(C)O2", "note": "[perchlorate salt, acronycinium perchlorate]", "values": [{"measurement": "solubility (qualitative)", "setting": "[2]", "result": "soluble in water and insoluble in acetone and benzene"}]}, {"smiles": "CCC(=O)Oc1c2ccccc2[n+](C)c2c3c(cc(OC)c12)OC(C)(C)C=C3", "note": "[propionylacronycinium perchlorate, Propionylacronycinium Perchlorate]", "values": [{"measurement": "half-life", "setting": "[1]; 0.05 m gentisic acid, pH 2.7, gentisic acid (0.05 M), pH 2.70, 25°C, read-out: t1/2 (hydrolysis)", "result": 1.71, "unit": "h"}, {"measurement": "half-life", "setting": "[1]; 0.05 m gentisic acid, pH 2.78, gentisic acid (0.05 M), pH 2.78, 25°C, read-out: t1/2 (hydrolysis)", "result": 1.44, "unit": "h"}, {"measurement": "k (hydrolysis)", "setting": "[1]; pH 2.70, 25°C", "result": 0.0067, "unit": "min⁻¹"}, {"measurement": "k (hydrolysis)", "setting": "[1]; pH 2.78, 25°C", "result": 0.008, "unit": "min⁻¹"}, {"measurement": "k (hydrolysis)", "setting": "[3]; phosphate buffer, pH 7.50, 25°C", "result": 0.028, "unit": "min⁻¹"}, {"measurement": "half-life", "setting": "[3]; phosphate buffer, pH 7.5, phosphate buffer, pH 7.50, 25°C", "result": 0.407, "unit": "h"}, {"measurement": "k (hydrolysis)", "setting": "[3]; [11]", "result": "0.046 min⁻¹ and 0.047 min⁻¹"}, {"measurement": "t1/2 (hydrolysis)", "setting": "[3]; [11]", "result": 0.243, "unit": "h"}, {"measurement": "half-life", "setting": "[3]; phosphate buffer, pH 7.6, phosphate buffer, pH 7.60, 25°C", "result": 0.248, "unit": "h"}]}]}
